Tested on: Phaeosphaeria nodorum (Septoria nodorum)
Assay: Phaeosphaeria nodorum (Septoria nodorum) / wheat / leaf disc preventative (glume blotch)
Assay type: in vivo
Settings: Parastagonospora nodorum, foliar, wheat leaf segments cv. Kanzler on agar, inoculated 2 days after application, vs untreated control, read-out: disease control
Procedure: Phaeosphaeria nodorum (Septoria nodorum)/Wheat/Leaf Disc Preventative (Glume Blotch) Wheat leaf segments cv. Kanzler are placed on agar in a multiwell plate (24-well format) and sprayed with the formulated test compound diluted in water. The leaf disks are inoculated with a spore suspension of the fungus 2 days after application. The inoculated test leaf disks are incubated at 20° C. and 75% rh under a light regime of 12 h light/12 h darkness in a climate cabinet and the activity of a compound is assessed as percent disease control compared to untreated when an appropriate level of disease damage appears in untreated check leaf disks (5-7 days after application).

Structure (SMILES)	pest or weed control at 200 ppm [%]
c1cc(-c2ncc3ccccc3n2)nc(-c2cc3ccccc3c3ccccc23)c1 [2/119]	≥ 80
Cc1ccc(-c2ncc3ccccc3n2)nc1-c1cccc([N+](=O)[O-])c1 [3/104]	≥ 80
CSc1cccc(-c2nc(-c3ncc4ccccc4n3)ccc2C)c1 [3/125]	≥ 80
Cc1c(F)cccc1-c1cccc(-c2ncc3ccccc3n2)n1 [2/124]	≥ 80
Cc1ccc2cnc(-c3ccc(C)c(-c4ccccc4)n3)nc2c1 [11/12]	≥ 80
OCc1cc2ccccc2cc1-c1cccc(-c2ncc3ccccc3n2)n1 [2/116]	≥ 80
N#Cc1c(Cl)cccc1Cc1cccc(-c2ncc3ccccc3n2)n1 [6/33]	≥ 80
O=Cc1c(F)ccc(-c2cccc(-c3ncc4ccccc4n3)n2)c1F [2/110]	≥ 80
COC(=O)c1cccc(-c2nc(-c3ncc4ccccc4n3)ccc2C)c1 [3/123]	≥ 80
O=Cc1ccc(-c2cccc(-c3ncc4ccccc4n3)n2)c(F)c1F [2/111]	≥ 80
COCCOc1nc(-c2cccc(Cc3ccccc3)n2)nc2ccccc12 [12/10]	≥ 80
OCc1c(-c2cccc(-c3ncc4ccccc4n3)n2)ccc2ccccc12 [2/115]	≥ 80
c1ccc(CCc2cccc(-c3ncc4ccccc4n3)n2)cc1 [10/17]	≥ 80
OCc1nc(-c2cccc(Cc3ccccc3)n2)nc2ccccc12 [12/16]	≥ 80
CCCCc1nc(-c2cccc(Cc3ccccc3)n2)nc2ccccc12 [12/5]	≥ 80
COC(=O)c1ccc(-c2nc(-c3ncc4ccccc4n3)ccc2C)cc1 [3/103]	≥ 80
c1ccc(-c2ccccc2Cc2cccc(-c3ncc4ccccc4n3)n2)cc1 [6/21]	≥ 80
Cc1ccc(-c2ncc3ccccc3n2)nc1-c1c(F)cccc1F [3/105]	≥ 80
Cc1ccc(-c2ncc3ccccc3n2)nc1-c1ccc(Cl)cc1C(F)(F)F [3/129]	≥ 80
CC(=O)c1cccc(-c2nc(-c3ncc4ccccc4n3)ccc2C)c1 [3/133]	≥ 80
Cc1c(Cl)cccc1-c1cccc(-c2ncc3ccccc3n2)n1 [2/126]	≥ 80
N#Cc1ccccc1Cc1cccc(-c2ncc3ccccc3n2)n1 [6/32]	≥ 80
Cc1ccc(-c2ncc3cccc(Cl)c3n2)nc1-c1ccccc1 [11/13]	≥ 80

Structure (SMILES)	pest or weed control at 200 ppm [%]
COc1ccc2nc(-c3ccc(C)c(-c4ccccc4)n3)nc(C)c2c1 [11/20]	≥ 80
Cc1ccc(-c2ncc3ccccc3n2)nc1-c1cccc(C#N)c1 [3/132]	≥ 80
COc1cccc(OC)c1-c1nc(-c2ncc3ccccc3n2)ccc1C [3/135]	≥ 80
Cc1ccc(-c2ncc3c(C)cccc3n2)nc1-c1ccccc1 [11/18]	≥ 80
CCc1nc(-c2cccc(Cc3ccccc3)n2)nc2ccccc12 [12/15]	≥ 80
N#Cc1ccc(Cc2cccc(-c3ncc4ccccc4n3)n2)cc1 [6/31]	≥ 80
Clc1ccc(Cc2cccc(-c3ncc4ccccc4n3)n2)c(Cl)c1 [6/37]	≥ 80
Cc1ccc(-c2ncc3ccccc3n2)nc1-c1cccc(Cl)c1 [3/109]	≥ 80
Cc1ccc(Cc2cccc(-c3ncc4ccccc4n3)n2)cc1Cl [6/42]	≥ 80
COc1ccccc1Cc1nc(-c2ncc3ccccc3n2)ccc1C [7/21]	≥ 80
Fc1c(Cl)cccc1Cc1cccc(-c2ncc3ccccc3n2)n1 [6/22]	≥ 80
Clc1cccc(-c2cccc(-c3ncc4ccccc4n3)n2)c1Cl [2/50]	≥ 80
COc1ccc(-c2ncc3ccccc3n2)nc1-c1ccccc1 [14/4]	≥ 80
COc1ccc(-c2ncc3ccccc3n2)nc1-c1ccc(F)cc1 [14/5]	≥ 80
Fc1ccc(Cc2cccc(-c3ncc4ccccc4n3)n2)cc1F [6/24]	≥ 80
COC(=O)Nc1ccc(Cc2cccc(-c3ncc4ccccc4n3)n2)cc1 [6/39]	≥ 80
Cc1cc(-c2cccc(-c3ncc4ccccc4n3)n2)c(C)cc1F [2/133]	≥ 80
COc1cc(F)c(F)cc1-c1cccc(-c2ncc3ccccc3n2)n1 [2/128]	≥ 80
Clc1ccc(Cc2cccc(-c3ncc4ccccc4n3)n2)cc1Cl [6/27]	≥ 80
Cc1ccc(Cc2cccc(-c3ncc4ccccc4n3)n2)c(C)c1 [6/38]	≥ 80
COc1cc(F)c(F)cc1-c1nc(-c2ncc3ccccc3n2)ccc1C [3/137]	≥ 80
Cc1ccc(-c2nc(C)c3cccc(C)c3n2)nc1-c1ccccc1 [11/16]	≥ 80
C(=C\c1cccc(-c2ncc3ccccc3n2)n1)/c1ccccc1 [10/20]	≥ 80

Structure (SMILES)	pest or weed control at 200 ppm [%]
Cc1ccc(C)c(Cc2cccc(-c3ncc4ccccc4n3)n2)c1 [6/41]	≥ 80
CC(=O)c1ccccc1-c1cccc(-c2ncc3ccccc3n2)n1 [2/105]	≥ 80
CC(=O)c1ccc(-c2nc(-c3ncc4ccccc4n3)ccc2C)cc1 [3/118]	≥ 80
CCOc1ccc(-c2nc(-c3ncc4ccccc4n3)ccc2C)cc1 [3/107]	≥ 80
COc1cccc(Cc2cccc(-c3ncc4ccccc4n3)n2)c1OC [6/30]	≥ 80
Cc1ccc(-c2ncc3ccccc3n2)nc1-c1ccc(CO)cc1 [3/139]	≥ 80
Cc1ccc(-c2nc(-c3ncc4ccccc4n3)ccc2C)cc1[N+](=O)[O-] [3/120]	≥ 80
Fc1ccc(Br)c(Cc2cccc(-c3ncc4ccccc4n3)n2)c1 [6/34]	≥ 80
Fc1cc(F)c(-c2cccc(-c3ncc4ccccc4n3)n2)c(F)c1 [2/132]	≥ 80
Cc1ccc(-c2ncc3ccccc3n2)nc1-c1ccc(CC#N)cc1 [3/126]	≥ 80
COc1ccc(-c2nc(-c3ncc4ccccc4n3)ccc2OC)cc1 [14/3]	≥ 80
Cc1ccccc1Cc1nc(-c2ncc3ccccc3n2)ccc1C [7/20]	≥ 80
O=[N+]([O-])c1ccccc1-c1cccc(-c2ncc3ccccc3n2)n1 [2/112]	≥ 80
Fc1cccc(F)c1-c1cccc(-c2ncc3ccccc3n2)n1 [2/104]	≥ 80
CCc1ccc(-c2nc(-c3ncc4ccccc4n3)ccc2C)cc1 [3/131]	≥ 80
CC(=O)c1ccccc1-c1nc(-c2ncc3ccccc3n2)ccc1C [3/108]	≥ 80
COc1ccc2nc(-c3ccc(C)c(-c4ccccc4)n3)ncc2c1 [11/19]	≥ 80
N#Cc1ccccc1-c1cccc(-c2ncc3ccccc3n2)n1 [2/61]	≥ 80
Cc1ccc(-c2nc(C)c3c(C)cccc3n2)nc1-c1ccccc1 [11/21]	≥ 80
COC(=O)c1ccccc1-c1nc(-c2ncc3ccccc3n2)ccc1C [3/128]	≥ 80
CCCc1ccc(-c2nc(-c3ncc4ccccc4n3)ccc2C)cc1 [3/114]	≥ 80
Fc1ccc(Cc2cccc(-c3ncc4ccccc4n3)n2)c(F)c1F [6/28]	≥ 80
CCOCc1ccc(-c2nc(-c3ncc4ccccc4n3)ccc2C)cc1 [3/142]	≥ 80

Structure (SMILES)	pest or weed control at 200 ppm [%]
Cc1ccc(-c2nc(C)c3cccc(Cl)c3n2)nc1-c1ccccc1 [11/14]	≥ 80
Fc1ccc(Cc2cccc(-c3ncc4ccccc4n3)n2)c(Cl)c1 [6/20]	≥ 80
Fc1cc(F)c(F)c(Cc2cccc(-c3ncc4ccccc4n3)n2)c1 [6/29]	≥ 80
Cc1ccc(-c2ncc3ccccc3n2)nc1-c1ccc2ccccc2c1 [3/106]	≥ 80
COc1cccc(OC)c1-c1cccc(-c2ncc3ccccc3n2)n1 [2/113]	≥ 80
COc1ccc(-c2cccc(-c3ncc4ccccc4n3)n2)cc1F [2/57]	≥ 80
Cc1ccc(-c2ncc3ccccc3n2)nc1-c1ccc(Cl)c(F)c1Cl [3/138]	≥ 80
COc1cc(-c2nc(-c3ncc4ccccc4n3)ccc2C)cc(OC)c1OC [3/110]	≥ 80
Cc1ccc(-c2ncc3ccccc3n2)nc1/C=C/c1ccccc1 [10/23]	≥ 80
Cc1ccc(-c2ncc3cccc(C)c3n2)nc1-c1ccccc1 [11/15]	≥ 80
Cc1ccc(-c2ncc3ccccc3n2)nc1-c1ccccc1N [3/102]	≥ 80
OCc1cc(F)ccc1-c1cccc(-c2ncc3ccccc3n2)n1 [2/117]	≥ 80
Fc1cc(Br)ccc1Cc1cncc(-c2ncc3ccccc3n2)c1 [6/35]	≥ 80
Cc1ccc(-c2ncc3ccc(Cl)cc3n2)nc1-c1ccccc1 [11/11]	≥ 80
c1ccc(Oc2cccc(-c3ncc4ccccc4n3)n2)cc1 [4/24]	≥ 80
CCCc1nc(-c2cccc(C(Cc3ccccc3)c3ccccc3)n2)nc2ccccc12 (stereo not drawn) [12/13]	≥ 80
COc1cc(-c2cccc(-c3ncc4ccccc4n3)n2)c(OC)cc1C [2/121]	≥ 80
COc1ccc(-c2ncc3ccccc3n2)nc1-c1ccc(C)cc1 [14/2]	≥ 80
Cc1ccc(-c2cccc(-c3ncc4ccccc4n3)n2)c2ccccc12 [2/108]	≥ 80
Cc1ccc(-c2ncc3ccccc3n2)nc1-c1cccc(-c2ccccc2)c1 [3/134]	≥ 80
Fc1cccc(F)c1Cc1cccc(-c2ncc3ccccc3n2)n1 [6/26]	≥ 80

Source: patent US20120129875A1, “SUBSTITUTED QUINAZOLINES AS FUNGICIDES” (SYNGENTA CROP PROTECTION, LLC, priority 2009, published 2012)
